This note sets out measurements from ChEMBL document CHEMBL3232739, “Discovery of a potent and dissociated non-steroidal glucocorticoid receptor agonist containing an alkyl carbinol pharmacophore” (Bioorg Med Chem Lett, 2014).

In brackets after ≈: the same amount, converted by molar mass. A value given as a limit tells only on which side of the number the result lay.

Series [1] in a line: Clearance in Sprague-Dawley rat at 2 mg/kg, iv. Set-up: dose 2 mg/kg, route intravenous. As to conditions: in vivo. Format: ADME, organism-based.
Series [2] concerns Mus musculus. Kind of series: Antiinflammatory activity in mouse assessed as inhibition of LPS-induced TNFalpha production at 1 mg/kg, po. In kind it is functional.
The nature of series [3]: Mean residence time in Sprague-Dawley rat at 2 mg/kg, iv. Format: ADME, organism-based. Set-up: dose 2 mg/kg, route intravenous. As to conditions: in vivo.
A short description of series [4]: Equilibrium solubility of the compound at pH 7.4. In kind it is physicochemical. The conditions noted are these: buffer.
A short description of series [5]: Permeability across basolateral to apical side in human Caco2 cells. The conditions noted are these: Caco-2, read-out: permeability. In kind it is ADME, cell-based.
Series [6] addresses T1, Glucocorticoid receptor (Homo sapiens, UniProt P04150).
T1 sequence (P04150 whole entry): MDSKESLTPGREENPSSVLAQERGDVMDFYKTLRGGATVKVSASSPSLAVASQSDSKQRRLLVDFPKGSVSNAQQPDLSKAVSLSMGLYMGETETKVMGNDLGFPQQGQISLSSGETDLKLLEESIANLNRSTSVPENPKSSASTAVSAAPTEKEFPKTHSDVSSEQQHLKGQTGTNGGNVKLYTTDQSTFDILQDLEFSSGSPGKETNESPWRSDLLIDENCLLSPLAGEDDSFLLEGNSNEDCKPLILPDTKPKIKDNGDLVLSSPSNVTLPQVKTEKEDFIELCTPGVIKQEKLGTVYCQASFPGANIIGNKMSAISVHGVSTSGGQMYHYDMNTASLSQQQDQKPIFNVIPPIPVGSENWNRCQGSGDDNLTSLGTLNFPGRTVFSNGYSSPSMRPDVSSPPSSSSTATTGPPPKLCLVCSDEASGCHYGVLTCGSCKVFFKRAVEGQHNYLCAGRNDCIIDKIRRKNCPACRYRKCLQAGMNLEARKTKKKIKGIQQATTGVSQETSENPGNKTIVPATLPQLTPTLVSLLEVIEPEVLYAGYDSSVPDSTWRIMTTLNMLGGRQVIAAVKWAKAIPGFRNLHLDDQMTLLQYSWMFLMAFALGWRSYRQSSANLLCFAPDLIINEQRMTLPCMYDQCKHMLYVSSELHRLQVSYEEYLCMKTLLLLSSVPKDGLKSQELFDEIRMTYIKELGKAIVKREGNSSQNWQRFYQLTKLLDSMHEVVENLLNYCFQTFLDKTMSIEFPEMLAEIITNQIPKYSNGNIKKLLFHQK
Description: Transactivation of glucocorticoid receptor in human HeLa cells harboring MMTV promoter by luciferase reporter gene assay

Series [7] concerns Mus musculus. The experiment in a line: Toxicity in B10.RIII mouse assessed as insulin level in serum at 30 mg/kg, po qd for 5 weeks relative to control. Format: organism-based. Set-up: dose 30 mg/kg, route oral. As to conditions: in vivo, 840 h.
Series [8] relates to Mus musculus. The experiment in a line: Toxicity in B10.RIII mouse assessed as free fatty acid level in serum at 100 mg/kg, po qd for 5 weeks relative to control. In kind it is organism-based. Set-up: dose 100 mg/kg, route oral. The conditions noted are these: in vivo, 840 h.
The subject of series [9] is Mus musculus. The experiment in a line: Toxicity in B10.RIII mouse assessed as triglyceride level in serum at 30 mg/kg, po qd for 5 weeks relative to control. Set-up: dose 30 mg/kg, route oral. As to conditions: in vivo, 840 h. Format: organism-based.
For series [10], the system named is Mus musculus. Kind of series: Antiarthritic activity in po dosed B10.RIII mouse collagen/complete Freund's adjuvant-induced arthritis model assessed as reduction of disease score administered po qd for 5 weeks relative to control. As to conditions: 840 h. In kind it is functional.
The species named for series [11] is Homo sapiens. The experiment in a line: Selectivity ratio of IC50 for progesterone receptor (unknown origin) to IC50 for glucocorticoid receptor (unknown origin).
Series [12] has as its system Mus musculus. Kind of series: Antiarthritic activity in B10.RIII mouse collagen/complete Freund's adjuvant-induced arthritis model assessed as reduction of disease score at 30 mg/kg, po qd for 5 weeks relative to control. Set-up: scale not given: the % may be the effect or the level left. Format: functional.
Series [13] has as its system Mus musculus. Kind of series: Toxicity in B10.RIII mouse assessed as body fate level in serum at 100 mg/kg, po qd for 5 weeks relative to control. Format: organism-based. Set-up: dose 100 mg/kg, route oral. The conditions noted are these: in vivo, 840 h.
Series [14] relates to Mus musculus. The experiment in a line: Toxicity in B10.RIII mouse assessed as insulin level in serum at 100 mg/kg, po qd for 5 weeks relative to control. Format: organism-based. The conditions noted are these: in vivo, 840 h. Set-up: dose 100 mg/kg, route oral.
Series [15] is described as follows: AUC (infinity) in Sprague-Dawley rat at 30 mg/kg, po. Format: ADME, organism-based. Set-up: time infinity, dose 30 mg/kg, route oral. The conditions noted are these: plasma.
Series [16] has as its system Mus musculus. Kind of series: Antiarthritic activity in B10.RIII mouse collagen/complete Freund's adjuvant-induced arthritis model assessed as reduction of disease score at 100 mg/kg, po qd for 5 weeks relative to control. Format: functional. Set-up: scale not given: the % may be the effect or the level left.
The species named for series [17] is Homo sapiens. Kind of series: Selectivity ratio of IC50 for mineralocorticoid receptor (unknown origin) to IC50 for glucocorticoid receptor (unknown origin).
Series [18] deals with T2, Mineralocorticoid receptor (Homo sapiens, UniProt P08235).
T2 sequence (P08235 whole entry): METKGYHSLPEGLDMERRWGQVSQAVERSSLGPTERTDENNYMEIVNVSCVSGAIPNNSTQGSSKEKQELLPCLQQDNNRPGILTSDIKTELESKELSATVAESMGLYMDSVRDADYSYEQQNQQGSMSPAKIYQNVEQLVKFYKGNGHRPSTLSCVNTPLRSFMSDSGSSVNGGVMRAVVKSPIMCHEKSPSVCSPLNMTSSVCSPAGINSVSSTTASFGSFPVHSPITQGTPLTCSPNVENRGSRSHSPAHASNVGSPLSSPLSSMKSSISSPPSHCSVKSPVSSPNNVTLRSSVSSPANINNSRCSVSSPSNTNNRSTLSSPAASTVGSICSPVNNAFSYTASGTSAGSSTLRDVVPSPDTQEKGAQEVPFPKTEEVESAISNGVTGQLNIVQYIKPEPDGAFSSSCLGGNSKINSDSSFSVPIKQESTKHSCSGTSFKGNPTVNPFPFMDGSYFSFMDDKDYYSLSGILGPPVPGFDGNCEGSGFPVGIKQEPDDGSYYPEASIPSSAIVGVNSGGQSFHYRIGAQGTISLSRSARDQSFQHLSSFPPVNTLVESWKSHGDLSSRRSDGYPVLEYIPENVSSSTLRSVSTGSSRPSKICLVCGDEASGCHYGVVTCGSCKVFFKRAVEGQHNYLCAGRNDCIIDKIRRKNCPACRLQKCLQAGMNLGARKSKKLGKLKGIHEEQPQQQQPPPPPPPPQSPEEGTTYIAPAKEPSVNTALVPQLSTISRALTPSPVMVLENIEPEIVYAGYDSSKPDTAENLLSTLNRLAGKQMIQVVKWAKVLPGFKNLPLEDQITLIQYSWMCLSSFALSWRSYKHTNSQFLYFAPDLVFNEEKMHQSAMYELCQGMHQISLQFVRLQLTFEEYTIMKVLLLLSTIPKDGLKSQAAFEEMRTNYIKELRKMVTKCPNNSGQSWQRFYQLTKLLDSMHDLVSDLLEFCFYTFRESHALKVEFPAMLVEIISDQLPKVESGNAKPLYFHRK
The experiment in a line: Displacement of TAMRA-labeled dexamethasone from mineralocorticoid receptor (unknown origin) by fluorescence polarization assay.

A short description of series [19]: Cmax in Sprague-Dawley rat at 30 mg/kg, po. Set-up: dose 30 mg/kg, route oral. As to conditions: in vivo. In kind it is ADME, organism-based.
Series [20] can be described thus: Oral bioavailability in Sprague-Dawley rat at 30 mg/kg. Format: ADME, organism-based. The conditions noted are these: in vivo.

In the case of `Cc1ccc(F)cc1C(C)(C)C[C@@](O)(Cc1cc2cnccc2[nH]1)C(C)(C)C`, the clearance in [1] amounted to 48 mL/min/kg. Moreover, the inhibition in vivo at 1 mg/kg in series [2] is 82%. Besides, the MRT in [3] is 1.38 h. The compound further displayed a thermodynamic solubility in series [4] of 15 µg/mL (≈ 39.2 µM). Further, the Papp B→A in series [5] amounted to 16.9 ×10⁻⁶ cm/s. The results for the IC50 in series [6] and in [18] were greater than 2000 nM and 420 nM, respectively. Also, the Activity in series [7] is 60%; in series [8], -27%; in series [9], 29%; in [12], -51%; in series [13], -3%; in [14], 224%. Further, the Activity in series [16] is -84%. Also, the median effective dose (ED50) in [10] came out at 30 mg/kg. Further, the Ratio IC50 in [11] and in series [17] was greater than 100 in each case. In series [15], this compound registered an AUC(0-inf) of 6730 ng·h/mL. In addition, the peak level in series [19] (Cmax) was 708 ng/mL. Further, the bioavailability in [20] came to 64%.
